Measured values from patent publication US20230414617A1, “PHARMACEUTICAL COMPOSITION COMPRISING ACID-BASE NEUTRALIZATION COMBINATION AND APPLICATION THEREOF” (CHENGDU KUACHANGAOPU MEDICAL TECHNOLOGY CO., LTD., priority 2020, published 2023).
Counter-ions that a name gives are not always drawn.

Key:
[1] = pH of the study drug aqueous solution; format: physicochemical; settings: aqueous solution
[2] = tested on: breast cancer 4T1 cells; test: Tumor inhibition, breast cancer 4T1 transplantation tumor (Example 5); format: in vivo, BALB/c mouse; settings: intratumoral; for Tumor weight (x ± s): once every 3 days x3, 5th day after end; for Tumor inhibition rate: vs negative control
Experimental: (§1) In the following examples of the present invention, the co-administration pharmaceutical efficacies of drug A and drug B combination administration was determined by ratio q of actual pharmaceutical efficacy/expected pharmaceutical efficacy according to Zhengjun JIN method, as follows.
In one experiment, the test animal was a BALB/c mouse, the modeling cells were breast cancer 4T1 cells, and the transplantation tumor was modeled at 1×10^6 cells/mouse under the skin of the animal's right axilla. […] Each group was administered by intratumoral injection once every 3 days for a total of 3 times, each time at an injection dose of […]. On the 5th day after the administration was ended, the animals were euthanized, and the tumor weight was measured after anatomy to the animals. The tumor inhibition rate was calculated from the negative control group.

[3] = tested on: breast cancer 4T1 cells; test: Tumor inhibition, breast cancer 4T1 transplantation tumor (Example 4); format: in vivo, BALB/c mice; settings: intratumoral; for Tumor weight (x ± s): 150 μl/mouse, once every 3 days x3, 5th day after end; for Tumor inhibition rate: vs negative control
Experimental: as §1
In another experiment, the test animal was BALB/c mice, the modeling cells were breast cancer 4T1 cells, and the transplantation tumor was modeled at 1×10^6 cells/mouse under the skin of the animal's right axilla. Successfully modeled experimental animals (average tumor volume 307 mm^3) were randomly divided into 1 negative control group (group 0) and 13 drug study groups (groups 1-13). […] Each group was administered by intratumoral injection once every 3 days for a total of 3 times, each time at an injection dose of 150 μl/mouse. On the 5th day after the administration was ended, the animals were euthanized, and the tumor weight was measured after anatomy to the animals. The tumor inhibition rate was calculated from the negative control group.

[4] = tested on: breast cancer 4T1 cells; test: Tumor inhibition, breast cancer 4T1 transplantation tumor (Example 6); format: in vivo, BALB/c mouse; settings: intratumoral; for Tumor weight (x ± s): 150 μl/mouse, once every 3 days x3, 5th day after end; for Tumor inhibition rate: vs negative control
Experimental: as §1
(§2) In an experiment, the test animal was a BALB/c mouse, the modeling cells were breast cancer 4T1 cells, and the transplantation tumor was modeled at 1×10^5 cells/mouse under the skin of the animal's right axilla. Successfully modeled experimental animals (with an average tumor volume of 324 mm^3) were divided into 1 negative control group (group 0) and 9 drug study groups (groups 1-9). […] Each group was administered by intratumoral injection once every 3 days for a total of 3 times, each time at an injection dose of 150 μl/mouse. On the 5th day after the administration was ended, the animals were euthanized, and the tumor weight was measured after anatomy to the animals. The tumor inhibition rate was calculated from the negative control group.

[5] = tested on: breast cancer 4T1 cells; test: Tumor inhibition, breast cancer 4T1 transplantation tumor (Example 7); format: in vivo, BALB/c mouse; settings: intratumoral; for Tumor weight (x ± s): 150 ul/mouse, once every 3 days x3, 5th day after end; for Tumor inhibition rate: vs negative control
Experimental: as §1
In an experiment, the test animal was a BALB/c mouse, the modeling cells were breast cancer 4T1 cells, and the transplantation tumor was modeled at 1×10^6 cells/mouse under the skin of the animal's right axilla. […] The negative controls and study drugs were administered intraperitoneally (groups 02, 11 and 15) and intratumorally (other study groups), respectively. All groups were dosed once every 3 days, for a total of 3 times, […], with an injection volume of 150 ul/mouse. On the 5th day after the administration was ended, the animals were euthanized, and the tumor weight was measured after anatomy to the animals. The tumor inhibition rate was calculated from the negative control group.

[6] = tested on: breast cancer 4T1 cells; test: Tumor inhibition, breast cancer 4T1 transplantation tumor (Example 3); format: in vivo, BALB/c mouse; settings: intratumoral; for Tumor weight (x ± s): 150 μl/mouse, once every 3 days x3, 5th day after end; for Tumor inhibition rate: vs negative control
Experimental: as §1
In an experiment, the test animal was a BALB/c mouse, the modeling cells were breast cancer 4T1 cells, and the transplantation tumor was modeled at 1×10^6 cells/mouse under the skin of the animal's right axilla. […] Each group was administered by intratumoral injection once every 3 days for a total of 3 times, each time at an injection dose of 150 μl/mouse. On the 5th day after the administration was ended, the animals were euthanized, and the tumor weight was determined after anatomy to the animals. The tumor inhibition rate was calculated from the negative control group.

[7] = tested on: mouse liver cancer Hepa1-6 cells; test: Series B: tumor inhibition, Hepa1-6 transplantation tumor in 8-month-old mice (Example 10); format: in vivo; settings: one intratumoral injection 100 μl/mouse; for r'3d, tumor inhibition rate (tumor volume): day 3; for r'14d, tumor inhibition rate (tumor volume): day 14
Experimental: The animals in series B were modeled in 8-month-old mice as a middle-aged and elderly patient model, which was not consistent with the commonly used young patient model in terms of tumor formation, tumor histomorphology, and body immunocompetence. […] The model animals were randomly divided into 13 groups. Each group was administered once by intratumoral injection according to the drug grouping in Table 11 with an injection volume of 100 μl/mouse.
The actual/expected ratio […] for short-term drug efficacy and the actual/expected ratio q14d for medium-term drug efficacy were calculated based on the drug efficacies (r′3d, […]) at different times (day 3, day 14), respectively.

[8] = tested on: breast cancer 4T1 cells; test: Tumor inhibition, breast cancer 4T1 transplantation tumor (Example 8); format: in vivo, BALB/c mouse; settings: intratumoral; for Tumor weight (x ± s): 150 μl/mouse, once every 3 days x3, 5th day after end; for Tumor inhibition rate: vs negative control
Experimental: as §1
as §2, with “336” for “324”, “16” for “9”, “1-16).” for “1-9).”

[9] = study drugs of Example 5 (Table 7)
[10] = study drugs of Example 4 (Table 6)
[11] = study drugs of Example 6 (Table 8)
[12] = study drugs of Example 3 (Table 5)

## CC(=O)O [30% acetic acid, acetic acid]
[1]; [9]
  pH: 2.5
[2]
  Tumor weight (x ± s): 0.41 ± 0.11 g
  Tumor inhibition rate: 81%

## O=C([O-])[O-].[Na+].[Na+] [14% sodium carbonate, sodium carbonate]
[1]; [10]
  pH: 10.8
[3]
  Tumor weight (x ± s): 1.47 ± 0.24 g
  Tumor inhibition rate: 35%

## Cl [0.4% hydrochloric acid, hydrochloric acid]
[1]; [11]
  pH: 0.1
[4]
  Tumor weight (x ± s): 1.65 ± 0.21 g
  Tumor inhibition rate: 21%

## O=C([O-])O.[Na+] [5% sodium bicarbonate, sodium bicarbonate]
[1]; [10]
  pH: 8.2
[1]; [11]
  pH: 8.2
[3]
  Tumor weight (x ± s): 1.79 ± 0.24 g
  Tumor inhibition rate: 21%
[4]
  Tumor weight (x ± s): 1.57 ± 0.20 g
  Tumor inhibition rate: 25%

## CN(C)c1ccc2nc3ccc(=[N+](C)C)cc-3sc2c1 [0.3% methylene blue, methylene blue]
[5]
  Tumor weight (x ± s): 2.11 ± 0.29 g
  Tumor inhibition rate: 3%

## O=C([O-])O.[Na+] [15% sodium bicarbonate, sodium bicarbonate]
[1]; [11]
  pH: 8.1
[4]
  Tumor weight (x ± s): 1.29 ± 0.24 g
  Tumor inhibition rate: 38%

## CC(=O)O [15% acetic acid, acetic acid]
[1]; [9]
  pH: 2.5
[2]
  Tumor weight (x ± s): 0.70 ± 0.18 g
  Tumor inhibition rate: 68%

## NCC(=O)O [15% glycine, glycine]
[1]; [9]
  pH: 6.8
[1]; study drugs of Example 7 (Table 9)
  pH: 6.8
[2]
  Tumor weight (x ± s): 1.81 ± 0.26 g
  Tumor inhibition rate: 17%
[5]
  Tumor weight (x ± s): 1.81 ± 0.26 g
  Tumor inhibition rate: 17%

## [Na+].[OH-] [5% NaOH, sodium hydroxide]
[1]; [12]
  pH: 14.0
[6]
  Tumor weight (x ± s): 0.28 ± 0.12 g
  Tumor inhibition rate: 72%

## dextran40 [2.5% dextran40 aqueous solution]
[7]
  r'3d, tumor inhibition rate (tumor volume): 4.2%
  r'14d, tumor inhibition rate (tumor volume): 5.3%

## Cl [5% hydrochloric acid, hydrochloric acid]
[1]; [11]
  pH: 0.1
[4]
  Tumor weight (x ± s): 0.36 ± 0.14 g
  Tumor inhibition rate: 83%

## O=C([O-])[O-].[Na+].[Na+] [2.8% sodium carbonate, sodium carbonate]
[1]; [10]
  pH: 10.9
[3]
  Tumor weight (x ± s): 2.10 ± 0.27 g
  Tumor inhibition rate: 7%

## yeast hydroxymethyl glucan
[7]
  r'3d, tumor inhibition rate (tumor volume): 4.5%
  r'14d, tumor inhibition rate (tumor volume): 7.8%

## O=C([O-])O.[Na+] [2% sodium bicarbonate, sodium bicarbonate]
[1]; [10]
  pH: 8.2
[3]
  Tumor weight (x ± s): 2.10 ± 0.25 g
  Tumor inhibition rate: 7%

## CC(=O)O [3% acetic acid, acetic acid]
[1]; [9]
  pH: 2.6
[2]
  Tumor weight (x ± s): 1.85 ± 0.26 g
  Tumor inhibition rate: 15%

## C=C[C@H]1C[N@@]2CC[C@H]1C[C@H]2[C@H](O)c1ccnc2ccc(OC)cc12 [3% quinine monohydrochloride, quinine monohydrochloride]
[8]; monohydrochloride
  Tumor weight (x ± s): 1.71 ± 0.26 g
  Tumor inhibition rate: 24%

## O=C([O-])[O-].[Na+].[Na+] [7% sodium carbonate, sodium carbonate]
[1]; [10]
  pH: 10.8
[3]
  Tumor weight (x ± s): 1.81 ± 0.21 g
  Tumor inhibition rate: 20%

## O=C([O-])O.[Na+] [10% sodium bicarbonate, sodium bicarbonate]
[1]; [12]
  pH: 8.1
[1]; [10]
  pH: 8.1
[6]
  Tumor weight (x ± s): 1.65 ± 0.29 g
  Tumor inhibition rate: 32%
[3]
  Tumor weight (x ± s): 1.58 ± 0.22 g
  Tumor inhibition rate: 30%

## Cl [3.5% hydrochloric acid, hydrochloric acid]
[1]; [11]
  pH: 0.1
[4]
  Tumor weight (x ± s): 0.82 ± 0.18 g
  Tumor inhibition rate: 71%

## [Cl-].[K+] [2% KCl, potassium chloride]
[6]
  Tumor weight (x ± s): 2.19 ± 0.31 g
  Tumor inhibition rate: 11%

## [Na+].[OH-] [1% NaOH, sodium hydroxide]
[1]; [12]
  pH: 13.4
[6]
  Tumor weight (x ± s): 1.41 ± 0.23 g
  Tumor inhibition rate: 42%

## CC(=O)[O-].[Na+] [30% sodium acetate, sodium acetate]
[1]; [9]
  pH: 9.4
[2]
  Tumor weight (x ± s): 1.53 ± 0.21 g
  Tumor inhibition rate: 30%

## O=C([O-])O.[Na+] [4% sodium bicarbonate, sodium bicarbonate]
[1]; [12]
  pH: 8.2
[1]; [9]
  pH: 8.2
[6]
  Tumor weight (x ± s): 1.87 ± 0.22 g
  Tumor inhibition rate: 23%
[2]
  Tumor weight (x ± s): 1.68 ± 0.27 g
  Tumor inhibition rate: 23%

## CC(=O)[O-].[Na+] [10% sodium acetate, sodium acetate]
[1]; [9]
  pH: 9.3
[2]
  Tumor weight (x ± s): 1.72 ± 0.23 g
  Tumor inhibition rate: 21%

## C=C[C@H]1C[N@@]2CC[C@H]1C[C@H]2[C@H](O)c1ccnc2ccc(OC)cc12 [5% quinine dihydrochloride, quinine dihydrochloride]
[8]; dihydrochloride
  Tumor weight (x ± s): 1.46 ± 0.21 g
  Tumor inhibition rate: 35%

## O=c1[nH]cc(F)c(=O)[nH]1 [0.25% 5-fluorouracil, 5-fluorouracil]
[5]
  Tumor weight (x ± s): 1.94 ± 0.33 g
  Tumor inhibition rate: 11%
